US20230085307A1, “PYRIDAZINONE COMPOUND AND HERBICIDE” (NISSAN CHEMICAL CORPORATION, priority 2019, published 2023)

Legend:
persian speedwell [1] = experiment: Test Example 4: herbicidal effect by soil treatment (Table 19, symbol R); assay type: in vivo, Persian speedwell (Veronica persica); conditions: amount of applied herbicide 320 g/ha
Method in brief: (§1)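 Soil-surface application: an emulsion agent diluted with water to the predetermined dose is sprayed uniformly over seeds lying under roughly 1.5 cm of sterilized diluvial soil. Boxes stay in a greenhouse at 25° C. to 30° C. Three weeks later, each species is graded on previously defined criteria.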

lambsquarters [2] = experiment: Test Example 5: herbicidal effect by foliage application, plastic box (Table 20, symbol O); assay type: in vivo, lambsquarters (Chenopodium album); conditions: foliage application, 320 g/ha, evaluated three weeks after application
Method in brief: (§2)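 Sow seeds spot-wise in sterilized diluvial soil; cover with ~1.5 cm soil. Grow 14 days in greenhouse, 25° C. to 30° C. Spray foliage with emulsion diluted to predetermined amount. Rate effect after 3 weeks.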

redroot pigweed [3] = experiment: Test Example 5: herbicidal effect by foliage application, plastic box (Table 20, symbol N); assay type: in vivo, redroot pigweed (Amaranthus retroflexus); conditions: foliage application, 320 g/ha, evaluated three weeks after application
Method in brief: as §2

chickweed [4] = experiment: Test Example 4: herbicidal effect by soil treatment (Table 19, symbol P); assay type: in vivo, common chickweed (Stellaria media); conditions: amount of applied herbicide 320 g/ha
Method in brief: as §1

green foxtail [5] = experiment: Test Example 5: herbicidal effect by foliage application, plastic box (Table 20, symbol G); assay type: in vivo, green foxtail (Setaria viridis); conditions: foliage application, 320 g/ha, evaluated three weeks after application
Method in brief: as §2

wild oat [6] = experiment: Test Example 4: herbicidal effect by soil treatment (Table 19, symbol I); assay type: in vivo, wild oat (Avena fatua); conditions: amount of applied herbicide 320 g/ha
Method in brief: as §1

green foxtail [7] = experiment: Test Example 4: herbicidal effect by soil treatment (Table 19, symbol G); assay type: in vivo, green foxtail (Setaria viridis); conditions: amount of applied herbicide 320 g/ha
Method in brief: as §1

rice flat sedge = experiment: Test Example 3: herbicidal effect by foliage application, Wagner pot (Table 18, symbol E); assay type: in vivo, rice flat sedge (Cyperus iria); conditions: amount of applied herbicide 320 g/ha
Method in brief: (§3)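 Plants were sown in alluvial soil held under 0.1–0.5 cm standing water and grown 14 days in a greenhouse at 25–30 °C. An emulsifiable formulation, water-diluted to the set dose, was then sprayed onto the foliage, and effects were scored three weeks later using previously defined criteria.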

windgrass [8] = experiment: Test Example 5: herbicidal effect by foliage application, plastic box (Table 20, symbol L); assay type: in vivo, windgrass (Apera spica-venti); conditions: foliage application, 320 g/ha, evaluated three weeks after application
Method in brief: as §2

Chinese sprangletop = experiment: Test Example 3: herbicidal effect by foliage application, Wagner pot (Table 18, symbol D); assay type: in vivo, chinese sprangletop (Leptochloa chinensis); conditions: amount of applied herbicide 320 g/ha
Method in brief: as §3

barnyard grass [9] = experiment: Test Example 3: herbicidal effect by foliage application, Wagner pot (Table 18, symbol H); assay type: in vivo, barnyard grass (Echinochloa crus-galli); conditions: amount of applied herbicide 320 g/ha
Method in brief: as §3

Japanese bulrush = experiment: Test Example 1: herbicidal activity, application before weed generation under submerged conditions (Table 16, symbol B); assay type: in vivo, Japanese bulrush (Schoenoplectus juncoides); conditions: 320 g/ha applied herbicide
Method in brief: (§4)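 Submerged Wagner pots (alluvial soil, 4 cm water) sown with weed seeds and planted with 2.5-leaf rice seedlings; emulsifiable concentrate diluted in water applied to water surface on sowing day. Held in greenhouse at 25-30 °C; injury scored 0-5 by herbicidal rate after three weeks.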

velvetleaf [10] = experiment: Test Example 5: herbicidal effect by foliage application, plastic box (Table 20, symbol M); assay type: in vivo, velvetleaf (Abutilon theophrasti); conditions: foliage application, 320 g/ha, evaluated three weeks after application
Method in brief: as §2

persian speedwell [11] = experiment: Test Example 5: herbicidal effect by foliage application, plastic box (Table 20, symbol R); assay type: in vivo, Persian speedwell (Veronica persica); conditions: foliage application, 320 g/ha, evaluated three weeks after application
Method in brief: as §2

Italian ryegrass [12] = experiment: Test Example 5: herbicidal effect by foliage application, plastic box (Table 20, symbol K); assay type: in vivo, Italian ryegrass (Lolium multiflorum); conditions: foliage application, 320 g/ha, evaluated three weeks after application
Method in brief: as §2

blackgrass [13] = experiment: Test Example 5: herbicidal effect by foliage application, plastic box (Table 20, symbol J); assay type: in vivo, blackgrass (Alopecurus myosuroides); conditions: foliage application, 320 g/ha, evaluated three weeks after application
Method in brief: as §2

chickweed [14] = experiment: Test Example 5: herbicidal effect by foliage application, plastic box (Table 20, symbol P); assay type: in vivo, common chickweed (Stellaria media); conditions: foliage application, 320 g/ha, evaluated three weeks after application
Method in brief: as §2

late watergrass = experiment: Test Example 1: herbicidal activity, application before weed generation under submerged conditions (Table 16, symbol A); assay type: in vivo, late watergrass (Echinochloa oryzicola); conditions: 320 g/ha applied herbicide
Method in brief: as §4

redroot pigweed [15] = experiment: Test Example 4: herbicidal effect by soil treatment (Table 19, symbol N); assay type: in vivo, redroot pigweed (Amaranthus retroflexus); conditions: amount of applied herbicide 320 g/ha
Method in brief: as §1

velvetleaf [16] = experiment: Test Example 4: herbicidal effect by soil treatment (Table 19, symbol M); assay type: in vivo, velvetleaf (Abutilon theophrasti); conditions: amount of applied herbicide 320 g/ha
Method in brief: as §1

windgrass [17] = experiment: Test Example 4: herbicidal effect by soil treatment (Table 19, symbol L); assay type: in vivo, windgrass (Apera spica-venti); conditions: amount of applied herbicide 320 g/ha
Method in brief: as §1

oval-leafed pondweed = experiment: Test Example 1: herbicidal activity, application before weed generation under submerged conditions (Table 16, symbol C); assay type: in vivo, oval-leafed pondweed (Monochoria vaginalis); conditions: 320 g/ha applied herbicide
Method in brief: as §4

southern crabgrass [18] = experiment: Test Example 4: herbicidal effect by soil treatment (Table 19, symbol F); assay type: in vivo, southern crabgrass (Digitaria ciliaris); conditions: amount of applied herbicide 320 g/ha
Method in brief: as §1

blackgrass [19] = experiment: Test Example 4: herbicidal effect by soil treatment (Table 19, symbol J); assay type: in vivo, blackgrass (Alopecurus myosuroides); conditions: amount of applied herbicide 320 g/ha
Method in brief: as §1

Italian ryegrass [20] = experiment: Test Example 4: herbicidal effect by soil treatment (Table 19, symbol K); assay type: in vivo, Italian ryegrass (Lolium multiflorum); conditions: amount of applied herbicide 320 g/ha
Method in brief: as §1

barnyard grass [21] = experiment: Test Example 4: herbicidal effect by soil treatment (Table 19, symbol H); assay type: in vivo, barnyard grass (Echinochloa crus-galli); conditions: amount of applied herbicide 320 g/ha
Method in brief: as §1

wild oat [22] = experiment: Test Example 5: herbicidal effect by foliage application, plastic box (Table 20, symbol I); assay type: in vivo, wild oat (Avena fatua); conditions: foliage application, 320 g/ha, evaluated three weeks after application
Method in brief: as §2

lambsquarters [23] = experiment: Test Example 4: herbicidal effect by soil treatment (Table 19, symbol O); assay type: in vivo, lambsquarters (Chenopodium album); conditions: amount of applied herbicide 320 g/ha
Method in brief: as §1

barnyard grass [24] = experiment: Test Example 5: herbicidal effect by foliage application, plastic box (Table 20, symbol H); assay type: in vivo, barnyard grass (Echinochloa crus-galli); conditions: foliage application, 320 g/ha, evaluated three weeks after application
Method in brief: as §2

southern crabgrass [25] = experiment: Test Example 5: herbicidal effect by foliage application, plastic box (Table 20, symbol F); assay type: in vivo, southern crabgrass (Digitaria ciliaris); conditions: foliage application, 320 g/ha, evaluated three weeks after application
Method in brief: as §2

| SMILES | herbicidal effect on O: lambsquarters (criteria 0-5) (lambsquarters [2]) | herbicidal effect on N: redroot pigweed (criteria 0-5) (redroot pigweed [3]) | herbicidal effect on G: green foxtail (criteria 0-5) (green foxtail [5]) | herbicidal effect on E: rice flat sedge (rice flat sedge) | herbicidal effect on L: windgrass (criteria 0-5) (windgrass [8]) | herbicidal effect on D: Chinese sprangletop (Chinese sprangletop) | herbicidal effect on H: barnyard grass (barnyard grass [9]) | Herbicidal effect on B: Japanese bulrush (grade 0-5) (Japanese bulrush) | herbicidal effect on M: velvetleaf (criteria 0-5) (velvetleaf [10]) | herbicidal effect on R: persian speedwell (criteria 0-5) (persian speedwell [11]) | herbicidal effect on K: Italian ryegrass (criteria 0-5) (Italian ryegrass [12]) | herbicidal effect on J: blackgrass (criteria 0-5) (blackgrass [13]) | herbicidal effect on P: chickweed (criteria 0-5) (chickweed [14]) | Herbicidal effect on A: late watergrass (grade 0-5) (late watergrass) | Herbicidal effect on C: oval-leafed pondweed (grade 0-5) (oval-leafed pondweed) | herbicidal effect on I: wild oat (criteria 0-5) (wild oat [22]) | herbicidal effect on H: barnyard grass (criteria 0-5) (barnyard grass [24]) | herbicidal effect on F: southern crabgrass (criteria 0-5) (southern crabgrass [25]) | further results |
| --- | --- | --- | --- | --- | --- | --- | --- | --- | --- | --- | --- | --- | --- | --- | --- | --- | --- | --- | --- |
| CCCOc1cccc(-c2sc3ccc(F)cc3c2-c2c(O)c(C)nn(C)c2=O)c1 [2-213] | 4 (Herbicidal rate of 70% or more and less than 90%) | 5 (Herbicidal rate of 90% or more (almost completely withered)) | 4 (Herbicidal rate of 70% or more and less than 90%) | 3 (Herbicidal rate of 40% or more and less than 70%) | 4 (Herbicidal rate of 70% or more and less than 90%) | 3 (Herbicidal rate of 40% or more and less than 70%) | 4 (Herbicidal rate of 70% or more and less than 90%) | 0 (Herbicidal rate of 5% or less (almost no effect)) | 1 (Herbicidal rate of 5% or more and less than 20%) | 5 (Herbicidal rate of 90% or more (almost completely withered)) | 4 (Herbicidal rate of 70% or more and less than 90%) | 3 (Herbicidal rate of 40% or more and less than 70%) | 5 (Herbicidal rate of 90% or more (almost completely withered)) | 3 (Herbicidal rate of 40% or more and less than 70%) | 0 (Herbicidal rate of 5% or less (almost no effect)) | 0 (Herbicidal rate of 5% or less (almost no effect)) | 3 (Herbicidal rate of 40% or more and less than 70%) | 5 (Herbicidal rate of 90% or more (almost completely withered)) | R: persian speedwell, herbicidal effect rating (persian speedwell [1]): 5 (Herbicidal rate of 90% or more (almost completely withered)); P: chickweed, herbicidal effect rating (chickweed [4]): 3 (Herbicidal rate of 40% or more and less than 70%); I: wild oat, herbicidal effect rating (wild oat [6]): 0 (Herbicidal rate of 5% or less (almost no effect)); G: green foxtail, herbicidal effect rating (green foxtail [7]): 4 (Herbicidal rate of 70% or more and less than 90%); N: redroot pigweed, herbicidal effect rating (redroot pigweed [15]): 5 (Herbicidal rate of 90% or more (almost completely withered)); M: velvetleaf, herbicidal effect rating (velvetleaf [16]): 0 (Herbicidal rate of 5% or less (almost no effect)); L: windgrass, herbicidal effect rating (windgrass [17]): 0 (Herbicidal rate of 5% or less (almost no effect)); F: southern crabgrass, herbicidal effect rating (southern crabgrass [18]): 5 (Herbicidal rate of 90% or more (almost completely withered)); J: blackgrass, herbicidal effect rating (blackgrass [19]): 0 (Herbicidal rate of 5% or less (almost no effect)); K: Italian ryegrass, herbicidal effect rating (Italian ryegrass [20]): 4 (Herbicidal rate of 70% or more and less than 90%); H: barnyard grass, herbicidal effect rating (barnyard grass [21]): 3 (Herbicidal rate of 40% or more and less than 70%); O: lambsquarters, herbicidal effect rating (lambsquarters [23]): 1 (Herbicidal rate of 5% or more and less than 20%) |
| CCCCCCOc1cccc(-c2sc3ccc(F)cc3c2-c2c(O)c(C)nn(C)c2=O)c1 [2-226] | 4 (Herbicidal rate of 70% or more and less than 90%) | 5 (Herbicidal rate of 90% or more (almost completely withered)) | 0 (Herbicidal rate of 5% or less (almost no effect)) | 3 (Herbicidal rate of 40% or more and less than 70%) | 5 (Herbicidal rate of 90% or more (almost completely withered)) | 3 (Herbicidal rate of 40% or more and less than 70%) | 4 (Herbicidal rate of 70% or more and less than 90%) | 0 (Herbicidal rate of 5% or less (almost no effect)) | 4 (Herbicidal rate of 70% or more and less than 90%) | 0 (Herbicidal rate of 5% or less (almost no effect)) | 0 (Herbicidal rate of 5% or less (almost no effect)) | 0 (Herbicidal rate of 5% or less (almost no effect)) | 4 (Herbicidal rate of 70% or more and less than 90%) | 2 (Herbicidal rate of 20% or more and less than 40%) | 0 (Herbicidal rate of 5% or less (almost no effect)) | 0 (Herbicidal rate of 5% or less (almost no effect)) | 0 (Herbicidal rate of 5% or less (almost no effect)) | 0 (Herbicidal rate of 5% or less (almost no effect)) | herbicidal effect on R: persian speedwell (persian speedwell [1]): 0 (Herbicidal rate of 5% or less (almost no effect)); herbicidal effect on P: chickweed (chickweed [4]): 0 (Herbicidal rate of 5% or less (almost no effect)); herbicidal effect on I: wild oat (wild oat [6]): 0 (Herbicidal rate of 5% or less (almost no effect)); herbicidal effect on G: green foxtail (green foxtail [7]): 0 (Herbicidal rate of 5% or less (almost no effect)); herbicidal effect on N: redroot pigweed (redroot pigweed [15]): 3 (Herbicidal rate of 40% or more and less than 70%); herbicidal effect on M: velvetleaf (velvetleaf [16]): 0 (Herbicidal rate of 5% or less (almost no effect)); herbicidal effect on L: windgrass (windgrass [17]): 0 (Herbicidal rate of 5% or less (almost no effect)); herbicidal effect on F: southern crabgrass (southern crabgrass [18]): 0 (Herbicidal rate of 5% or less (almost no effect)); herbicidal effect on J: blackgrass (blackgrass [19]): 0 (Herbicidal rate of 5% or less (almost no effect)); herbicidal effect on K: Italian ryegrass (Italian ryegrass [20]): 0 (Herbicidal rate of 5% or less (almost no effect)); herbicidal effect on H: barnyard grass (barnyard grass [21]): 0 (Herbicidal rate of 5% or less (almost no effect)); herbicidal effect on O: lambsquarters (lambsquarters [23]): 0 (Herbicidal rate of 5% or less (almost no effect)) |
